The values that follow come from ChEMBL document CHEMBL1150338, “Prediction and identification of drug interactions with the human ATP-binding cassette transporter multidrug-resistance associated protein 2 (MRP2; ABCC2)” (J Med Chem, 2008).

The target in one data set is MRP2 (ABCC2) (Homo sapiens, UniProt Q92887). The data set can be described thus: in vitro.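 Also: Inside-out membrane vesicles from Sf9 insect cells expressing human MRP2, measuring uptake of the estradiol glucuronide substrate, expressed as percent of untreated control.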
The target in data set [1] is ATP-binding cassette sub-family C member 2 (Homo sapiens, UniProt Q92887). The data set can be described thus: Inhibition of human MRP2-mediated estradiol-17-beta-glucuronide transport in Sf9 cells inverted membrane vesicles.
Where [2] appears, read: probe estradiol-17-beta-glucuronide.

Chain of MRP2 (ABCC2) (Q92887 whole entry): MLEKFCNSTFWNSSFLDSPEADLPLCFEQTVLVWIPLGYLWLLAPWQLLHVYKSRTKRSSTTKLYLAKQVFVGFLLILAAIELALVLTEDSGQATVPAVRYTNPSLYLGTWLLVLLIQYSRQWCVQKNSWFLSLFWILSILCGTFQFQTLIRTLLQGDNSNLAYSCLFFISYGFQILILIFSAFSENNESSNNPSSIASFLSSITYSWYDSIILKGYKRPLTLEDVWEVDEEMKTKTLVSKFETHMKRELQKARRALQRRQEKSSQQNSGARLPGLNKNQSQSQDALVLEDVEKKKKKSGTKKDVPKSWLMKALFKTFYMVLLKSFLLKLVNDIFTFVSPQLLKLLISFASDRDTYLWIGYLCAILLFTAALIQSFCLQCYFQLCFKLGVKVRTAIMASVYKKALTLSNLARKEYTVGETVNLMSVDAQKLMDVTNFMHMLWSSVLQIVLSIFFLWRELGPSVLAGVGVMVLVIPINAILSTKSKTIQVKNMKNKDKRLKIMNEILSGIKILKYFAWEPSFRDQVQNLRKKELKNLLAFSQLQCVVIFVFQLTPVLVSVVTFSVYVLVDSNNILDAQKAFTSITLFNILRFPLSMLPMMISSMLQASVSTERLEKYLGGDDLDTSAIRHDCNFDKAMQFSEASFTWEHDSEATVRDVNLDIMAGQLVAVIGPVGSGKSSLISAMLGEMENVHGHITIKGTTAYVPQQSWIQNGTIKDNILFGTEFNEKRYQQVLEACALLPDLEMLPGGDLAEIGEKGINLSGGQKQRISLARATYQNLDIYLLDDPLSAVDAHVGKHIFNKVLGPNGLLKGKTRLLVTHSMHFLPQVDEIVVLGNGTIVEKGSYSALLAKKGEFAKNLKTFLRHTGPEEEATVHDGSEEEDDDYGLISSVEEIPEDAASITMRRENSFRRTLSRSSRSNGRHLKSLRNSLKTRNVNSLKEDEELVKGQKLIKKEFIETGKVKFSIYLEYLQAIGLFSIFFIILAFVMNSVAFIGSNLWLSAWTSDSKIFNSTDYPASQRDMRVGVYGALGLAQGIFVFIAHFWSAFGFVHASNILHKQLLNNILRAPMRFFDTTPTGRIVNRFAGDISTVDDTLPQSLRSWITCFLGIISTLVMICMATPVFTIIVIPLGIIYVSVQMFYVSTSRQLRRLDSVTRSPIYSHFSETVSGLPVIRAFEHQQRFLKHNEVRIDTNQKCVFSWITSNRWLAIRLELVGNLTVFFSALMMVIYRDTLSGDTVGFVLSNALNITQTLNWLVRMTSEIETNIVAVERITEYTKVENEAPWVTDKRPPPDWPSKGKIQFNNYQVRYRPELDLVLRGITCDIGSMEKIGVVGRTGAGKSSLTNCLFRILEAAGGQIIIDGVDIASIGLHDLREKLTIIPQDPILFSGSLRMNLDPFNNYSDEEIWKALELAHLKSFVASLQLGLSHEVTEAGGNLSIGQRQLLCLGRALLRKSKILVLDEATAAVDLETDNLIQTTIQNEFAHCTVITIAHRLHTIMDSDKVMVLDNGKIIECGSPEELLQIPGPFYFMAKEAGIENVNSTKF
Chain of ATP-binding cassette sub-family C member 2 (Q92887 whole entry): as above
Description for MRP2 (ABCC2): Effect on human MRP2-mediated estradiol-17-beta-glucuronide transport in Sf9 cells inverted membrane vesicles relative to control

A word on the IC50: it is the point on the concentration scale where inhibition reaches its midpoint. `CN(C)C(=O)CCSC(SCCC(=O)O)c1cccc(/C=C/c2ccc3ccc(Cl)cc3n2)c1` (centres undefined) [MK-571]: the activity at MRP2 (ABCC2) (sf9) came out at 9%. In data set [1], this compound returned a concentration for half-maximal inhibition (IC50) of 10 µM.

Consider `CC(=O)N1CCN(c2ccc(OC[C@H]3CO[C@](Cn4ccnc4)(c4ccc(Cl)cc4Cl)O3)cc2)CC1` [KETOCONAZOLE], for which the activity at MRP2 (ABCC2) (setting [2]) was determined as 76%.

Consider `CN(Cc1cnc2nc(N)nc(N)c2n1)c1ccc(C(=O)N[C@@H](CCC(=O)O)C(=O)O)cc1` [METHOTREXATE], for which the activity at MRP2 (ABCC2) (sf9) is 130%.

With `O=c1c(O)c(-c2ccc(O)cc2O)oc2cc(O)cc(O)c12` [MORIN], at MRP2 (ABCC2) (setting [2]), the activity is 50%.

Consider `CSc1ccc2c(c1)N(CCC1CCCCN1C)c1ccccc1S2` (centres undefined) [THIORIDAZINE], for which the activity on MRP2 (ABCC2) (setting [2]) is -1%.

For `C[C@H](CCC(=O)NCCS(=O)(=O)O)[C@H]1CC[C@H]2[C@@H]3CC[C@@H]4C[C@H](O)CC[C@]4(C)[C@H]3CC[C@]12C` [TAUROLITHOCHOLIC ACID], the activity on MRP2 (ABCC2) (setting [2]) came out at 27%.

In the case of `CCCCOc1ccc(OCCCN2CCOCC2)cc1` [PRAMOXINE], the activity at MRP2 (ABCC2) (setting [2]) is 69%.

With `COc1ccc2cc([C@H](C)C(=O)O)ccc2c1` [NAPROXEN], the activity at MRP2 (ABCC2) (sf9) stood at 92%.
